Test results reported in paper PMC7766232, “Cyclic RGD and isoDGR Integrin Ligands Containing cis-2-amino-1-cyclopentanecarboxylic (cis-β-ACPC) Scaffolds” (Molecules, 2020).
Like-named read-outs stand apart in the source and are kept apart here. Starred links: 1 amine or outer side, 2 acyl side, 3 side chain; linkers in the order of their positions; H or OH if unused. Positions of bridges follow the written chain, without caps; N, C: chain ends. Non-standard residues stand in square brackets, D forms with d. Residues, ends and D or L forms follow the SMILES beside them. X1 = O=C([C@@H]1CCC[C@@H]1N[*:1])[*:2]

Key:
purified αvβ3 receptor [1] = target: T1, purified αvβ3 receptor (Homo sapiens, UniProt P05106+P06756); set-up: method as in PMID 23424096, PMID 28934103, PMID 28168158, PMID 31275795; conditions: reference compounds, measured using the same procedure; biotinylated vitronectin; mean ± SD; ref [29],[48],[49],[50]; cited from earlier work
purified α5β1 receptor [2] = target: T2, purified α5β1 receptor (Homo sapiens, UniProt P05556+P08648); set-up: method as in PMID 23424096, PMID 28934103, PMID 28168158, PMID 31275795; conditions: reference compounds, measured using the same procedure; biotinylated fibronectin; mean ± SD; ref [29],[48],[49],[50]; cited from earlier work
purified αvβ3 receptor [3] = target: T1, purified αvβ3 receptor; assay: Competitive binding assay to purified αvβ3 receptor (displacement of biotinylated vitronectin); conditions: for IC50: immobilized integrin αvβ3, biotinylated vitronectin 1 μg mL−1, mean ± SD of duplicate determinations; for selectivity ratio (IC50α5β1/IC50αvβ3): ratio of competitive binding IC50 values, α5β1 over αvβ3
Procedure: (§1) The cyclic peptidomimetics 8–10 were analyzed in a first instance for their competitive binding to purified αvβ3 and α5β1 receptors with respect to the biotinylated vitronectin or fibronectin, respectively. The IC50 values are collected in Table 1, where the values of Cilengitide (1a), cyclo-[RGDfV] (1b), cyclo-[DKP-RGD] (4), and cyclo-[DKP-isoDGR] (7), measured using the same procedure, are included as reference compounds for the RGD and isoDGR series. The new RGD compounds cyclo-[-Arg-Gly-Asp-(1S,2R)-β-ACPC-Val-] (8) and cyclo-[-Arg-Gly-Asp-(1R,2S)-β-ACPC-Val-] […] (10) is a micromolar binder for both integrins, much weaker than cyclo-[DKP-isoDGR] (7) in the case of αvβ3.
(§2) The inhibition assays of biotinylated vitronectin and fibronectin binding to the αvβ3 and α5β1 receptors, for compounds 8–10 were carried out as previously reported. […] Screening assays were performed by incubating the immobilized integrin αvβ3 or α5β1 with increasing concentrations (10^−12–10^−5 M/10^−11–10^−4 M) of the RGD and isoDGR ligands in the presence of the corresponding biotinylated ECM protein (1 μg mL^−1), and measuring bound protein in the presence of the competitive ligand. Each data point is the result of the average of triplicate wells and was analyzed by nonlinear regression analysis with the GraphPad Prism software. Each experiment was repeated in duplicate. IC50 values are the arithmetic mean ± the standard deviation (SD) of these duplicate determinations.

purified α5β1 receptor [4] = target: T2, purified α5β1 receptor; assay: Competitive binding assay to purified α5β1 receptor (displacement of biotinylated fibronectin); conditions: immobilized integrin α5β1, biotinylated fibronectin 1 μg mL−1; mean ± SD of duplicate determinations
Procedure: as §1, §2

WM115 cells = WM115 cells (Homo sapiens, UniProt P05106+P06756); assay type: cell-based
Procedure: WM-115 cells were washed with MEM (Minimum Essential Medium)-buffer, detached with trypsin and resuspended to a cell density of 1 × 10^5 cells/mL. WM-115 cells were then incubated with fluorescein diacetate for 30 min at 37 °C in the dark, washed with MEM medium and resuspended with MEM medium containing CaCl2 and MgCl2 (2 mM) and incubated on ice for 30 min in the dark. […] 0.00195313, 0.00097565, 0.00048828, 0.00024414). Cells and peptide were incubated for 30 min at 37° C in the dark and afterwards added to the 96-well ELISA-plates previously coated with vitronectin and incubated for 1 h at 37 °C in the dark. Unbound cells were aspirated, and bound cells were washed three times with MEM medium and fluorescence measured (λex: 485 nm, λem: 514 nm) with an InfiniteTM 200 Microplate Reader (Tecan, Männedorf, Switzerland). […] The IC50 values were determined four times per peptide in two independent assays here reported, and the final values are the arithmetic mean ± the standard deviation (SD) of the two independent assays. The reference peptide […] was tested together with the peptides.

[5] = read-out: IC50 (50% inhibition of cell adhesion to vitronectin), WM115 cells, fluorescein labeled, mean ± SD of two independent assays
[6] = read-out: IC50 cell adhesion, 1° Assay, WM-115 cells, vitronectin-coated plates, first independent assay (Figure S4)
[7] = read-out: IC50 cell adhesion, 2° Assay, WM-115 cells, vitronectin-coated plates, second independent assay (Figure S5)

Row | Molecule | IC50 (purified αvβ3 receptor [1]) | IC50 (purified α5β1 receptor [2]) | IC50 (purified αvβ3 receptor [3]) | selectivity ratio (IC50α5β1/IC50αvβ3) (purified αvβ3 receptor [3]) | IC50 (purified α5β1 receptor [4]) | IC50 (WM115 cells; [5]) | IC50 (WM115 cells; [6]) | IC50 (WM115 cells; [7]) | IC50 (50% inhibition of cell adhesion to vitronectin) (WM115 cells; WM115 cells, fluorescein labeled, mean ± SD of two independent assays)
1 | cyclo-[-DKP-Arg-Gly-Asp-] [Compound 4] | 0.0045 ± 0.0011 µM | 0.532 ± 0.035 µM |  |  |  |  |  |  | 
2 | cyclo[Arg-Gly-Asp-NMe Val-D-Phe] [Compound 1a] | 0.00071 ± 6e-05 µM |  |  |  |  |  |  |  | 
3 | cyclo-(-DKP-isoAsp-Gly-Arg-) [Compound 7] | 0.0092 ± 0.0011 µM | 1.07 ± 0.228 µM |  |  |  |  |  |  | 
4 | CC(C)[C@@H]1NC(=O)[C@H]2CCC[C@H]2NC(=O)[C@H](CC(=O)O)NC(=O)CNC(=O)[C@H](CCCNC(=N)N)NC1=O [Compound 8, cyclo-[-Arg-Gly-Asp-(1S,2R)-β-ACPC-Val-]] |  |  | 0.0443 ± 0.004 µM | ~73 | 3.23 ± 1.47 µM | 75 ± 32.5 µM | 52 µM | 98 µM | 
5 | CC(C)[C@@H]1NC(=O)[C@@H]2CCC[C@@H]2NC(=O)[C@H](CCCNC(=N)N)NC(=O)CNC(=O)C[C@@H](C(=O)O)NC1=O [Compound 10, cyclo-[-isoAsp-Gly-Arg-(1R,2S)-β-ACPC-Val-]] (GR[X1]VD-OH; lactam N-5) |  |  | 5.36 ± 0.281 µM |  | 2.33 ± 0.134 µM |  | > 300 µM | > 300 µM | could not be measured
6 | CC(C)[C@@H]1NC(=O)[C@@H]2CCC[C@@H]2NC(=O)[C@H](CC(=O)O)NC(=O)CNC(=O)[C@H](CCCNC(=N)N)NC1=O [Compound 9, cyclo-[-Arg-Gly-Asp-(1R,2S)-β-ACPC-Val-]] |  |  | 0.039 ± 0.0011 µM | about 12 | 0.468 ± 0.114 µM | 124 µM | 117 µM | 132 µM | 
